“Also recorded” adds a separate entry of the source.

The source of these data is patent publication US9642821B2, “MiR-182 in the diagnosis and treatment of cancer” (Dana-Farber Cancer Institute, Inc., priority 2010, dated 2017).

Holding throughout (format): cell-based
The test system of data set [1] is BRCA1 3′UTR-luciferase reporter. The experiment in a line: Luciferase reporter assay with BRCA1 3′UTR in HeLa cells. How it is done: The wild type (WT) and mutated (M) miR-182 recognition elements of 3′UTR-BRCA1 were annealed (see below) and cloned in expression vector, pMIR-REPORT (Ambion, Austin, Tex.) downstream to Firefly Luciferase.
Hela cells were co-transfected in a 24 well tissue culture plate with 10 nM control mimic (Ambion, Austin, Tex.) or miR-182 mimic (Ambion, Austin, Tex.), 0.2 μg 3′UTR-BRCA1-WT or 3′UTR-BRCA1-M, and 0.2 μg Renilla luciferase in pRL-TK (Promega, Madison, Wis.) vector using lipofectamine 2000 as described in manufacture's manual. Cells were harvested on day 2 and the luciferase activity was assayed with the Dual-Luciferase Assay System (Promega, Madison, Wis.) and a Synergy HT microplate reader (BioTek, Winooski, Vt.) as described in manufacture's manual.

For data set [2], the system named is BRCA1. The experiment in a line: BRCA1 expression after ectopic miRNA overexpression in HL60 cells (immunoblot, qPCR). How it is done: Analysis of the miRNAs of the miR-183 cluster was conducted using qPCR using the TaqMan MicroRNA Assay from Applied Biosystems as per the manufacturer's instructions and normalized to RNU6B snRNA. Analysis of mRNA expression was carried out with qPCR using the SYBR Green master mix (Applied Biosystems, Foster City, Calif.) according to the manufacture's manual and the BioRad iCycler. The mRNA (1 μg) was reverse transcribed with 50 ng random primers using 100 U moloney murine leukemia virus (MMLV) reverse transcriptase (Epicentre, Madison, Wis.) according to the manufacturer's manual. Results were normalized to 5SrRNA or GAPDH.
(§1) In each experiment, where Western blot analysis was done, a fraction of 0.2−0.5×10^6 cells was taken out at day, 3 or 4, post-transfection. Breast cancer cell lines were collected from 6 well tissue culture plates (0.5-1×10^6 cells). Cells lysates were prepared in RIPA buffer (150 mM NaCl, 1% NP-40, 0.5% sodium deoxycholate, 0.1% SDS, 50 mM Tris, pH 8.0). Lysates of 0.1×10^6 cells of each sample plus loading buffer were loaded on 8% SDS-PAGE gels, semi-dry transferred on nitrocellulose membrane, and probed with anti-BRCA1 antibody at a 1:500 dilution (CALBIOCHEM, MS110) and anti-tubulin antibody at a 1:10,000 dilution (Sigma, Clone B-5-1-2).
For orientation: In western blotting, separated proteins are transferred to a membrane and probed.

The test system of data set [3] is BRCA1. The experiment in a line: BRCA1 immunoblot in MDA-MB231 cells. The settings on record: MDA-MB231 cells overexpressing miR-182 vs miR-scr. How it is done:
as §1

Data set [4] deals with MDA-MB231 cells. The experiment in a line: Single-cell gel electrophoresis (comet) assay after irradiation, MDA-MB231. The conditions noted are these: MDA-MB231, 18 h repair, vs control mimic. How it is done: 21NT cells (0.35×10^6 cells/well in 6 well tissue culture plate) were transfected with 100 nM control or miR-182 antagomir expression vector (Ambion, Austin, Tex.) whereas MDA-MB231 (0.35×10^6 cells/well on 6 well plate) were transfected with 10 nM control or miR-182 mimic expression vector (Ambion, Austin, Tex.) using Lipofectamine 2000. At day 3 after transfection, cells were irradiated (0, 2, 4 and 6 Gy) and allowed to recover for 18 hours prior to analysis. The single cell comet assays was carried out according manufacturer's instructions (Trevigen, Gaithersburg, Md.). Briefly, treated or untreated cells were collected, resuspended in ice cold PBS at 10^5 cells/ml, mixed with low-melting point agarose (1:10 ratio) and spread on frosted glass slides. After the agarose solidified, the slides were placed in lysis buffer and then in alkaline solutions. […] Nuclei were visualized using epifluorescent illumination on a Zeiss microscope and images analyzed with National Institutes of Health ImageJ software (rsbweb.nih.gov/ij/). DNA damage was quantified for 70-100 cells for each experimental condition by determining the DNA in the comet tail using the software Comet Score (TriTek, Sumerduck, Va.).

For the next data set, the system named is U2OS cells. Nature of the data set: G2/M checkpoint, phospho-H3 flow cytometry after IR. The conditions noted are these: 5 Gy IR, nocodazole, P-H3 staining. How it is done:
U2OS cells (0.35×10^6 cells/well) were transfected with 10 nM control mimic or miR-182 mimic and, in rescue experiments, co-transfected with 1 μg of BRCA1 (lacking 3′UTR) expression construct using Lipofectamine 2000. After 2 days, cells were seeded into the wells of 12-well tissue culture plates, incubated overnight, irradiated (5 Gy) and released in nocadozole (200 ng/ml) containing media after 2 hours. The next day the cells were stained with primary Phospho-H3 (Ser10) antibodies 1:100 dilution (Upstate Biotechnology, Lake Placid, N.Y.) and FITC-labeled secondary antibodies 1:50 dilution (Santa Cruz Biotechnology, Santa Cruz, Calif.) and analyzed by flow cytometry.
For orientation: A flow cytometer gives signals particle by particle.

For data set [5], the system named is MDA-MB231 cells. The experiment in a line: Clonogenic cell survival assay after γ-radiation, MDA-MB231. The settings on record: MDA-MB231, vs control mimic. The procedure: Hela cells (0.35×10^6 cells/well), MDA-MB231 cells (0.4×10^6 cells/well), 21NT cells (0.5×10^6) were seeded overnight and transfected with 10 nM of miRNA mimics or antagomirs (Ambion, Austin, Tex.) using Lipofectamine 2000. In rescue experiments, miR-182 or control mimics were co-transfected with 1 μg/ml BRCA1 (pcDNA3.1 vector). After 2 days, 1000 cells in 4 ml DMEM media (10% FBS v/v) were seeded on 6 cm tissue culture dishes in four replicates and allowed to attach overnight before treatment. PARP inhibitors (4-amino-1,8-naphthalimide (Sigma, St. Louis, Mo.) or ABT-888 (ChemieTek, Indianapolis, Ind.) in DMSO) were added to the growth media at indicated concentrations. Irradiated cells as well as cells in the presence of PARP inhibitor were allowed to form colonies for 14 days. For evaluation, formed colonies were stained with crystal violet and surviving colonies containing >50 cells were counted. Plating efficiency was 30-50%.

In the next data set the test system is U2OS-DR-GFP cells. The experiment in a line: Homologous recombination (HR) DR-GFP reporter assay. The conditions noted are these: U2OS DR-GFP stably expressing miR-182, I-SceI. How it is done: U2OS-DR-GFP cells, with a single, stably integrated copy of the transgenic reporter DR-GFP were seeded (0.35×10^6 cells/well) into the wells of a 6-well tissue culture plate, transfected with a control and an miR-182 expression construct. Cells were selected for 4 weeks with 100 μg/ml of puromycin. mir-182 overexpression was confirmed with qPCR (FIG. 3C). HR assay was done as described (Chowdhury et al., Mol. Cell, 31:33-46 (2008)). Briefly, 2×10^5 cells plated overnight in 24-well plates were transfected with 0.8 μg of I-SceI expression plasmid (pCBA Sce) using Lipofectamine 2000. 2 days later, GFP positive cells were assayed by FACScan flow cytometer.
In general terms: In a reporter assay the amount or activity of a reporter protein is the signal.

As for “miR-182: microRNA with sequence 5′ UUUGGCAAUGGUAGAACUCACACU 3′ (SEQ ID NO:1); given as mimic (Ambion) or expression vector (UUUGGCAAUGGUAGAACUCACACU; listed as RNA, chemistry not given here; listed as Homo sapiens)”, the “effect of miR-182 on luciferase with mutated miR-182 recognition sites (BRCA1-M reporter)” value in data set [1] is listed as “significantly reduced the effect; also recorded: rescued this suppression”. Besides, in data set [1] (10 nM mimic, vs control mimic), the “reduction of luciferase activity, wildtype BRCA1-reporter” value is “more than 2 fold”. Also, in data set [1] (normalized to Renilla, p<0.001), the “luciferase activity of BRCA1-WT reporter” value is listed as “suppressed luciferase activity”. The BRCA1 protein level result is on record as “significant decrease” in the data set on BRCA1 [2] (HL60 cells transiently transfected with expression vectors, Western blot) and “sharply reduced; also recorded: lower levels; also recorded: diminish BRCA1 levels; also recorded: down regulates BRCA1 protein levels” in the data set on BRCA1 [3]. In the data set on BRCA1 [2] (ectopic overexpression, data not shown), the “BRCA1 mRNA level” value is recorded as “moderate decrease”. For the same substance, the “residual DNA damage (unrepaired DSBs) after irradiation” value in the data set on MDA-MB231 cells [4] is listed as “significantly higher residual DNA damage”; in the data set on MDA-MB231 cells [4] (listed as 182 mimic) it was “significantly altered”. In addition, in the data set on U2OS cells, the “mitotic cells post-DNA damage (G2/M checkpoint)” value is given as “significant increase in mitotic cells; also recorded: impacts the G2/M checkpoint”. The “sensitivity to IR (clonogenic survival)” value in the data set with MDA-MB231 cells [5] is listed as “significantly more sensitive”; in the data set with MDA-MB231 cells [5] (listed as miR-182 mimic), “significantly enhanced sensitivity to IR”. Also, the “HR-mediated DSB repair efficiency (GFP positive cells)” value with U2OS-DR-GFP cells is recorded as “significantly reduced HR-efficiency; also recorded: impedes homologous recombination-mediated repair”.
